Experimental data taken from patent publication US9029127B2, “Method of degrading TBP using a photosynthetic bacterial strain” (priority 2003, dated 2015).

Assays:
[1] = system: Serratia odorifera sp.; test: Effect of carbon monoxide on growth and TBP degradation of Serratia odorifera; format: cell-based; settings: aerobiosis; for effect of CO on growth: Tsb medium
[2] = system: Rp. palustris CGA009 (ATCC BAA-98); test: Effect of the cytochrome P450 inhibitor carbon monoxide on growth and TBP degradation of Rp. palustris; settings: for effect of CO on growth: photosynthetic conditions, Hutner medium
[3] = system: proteins extracted from Rp. palustris CGA009; format: biochemical, Rhodopseudomonas palustris
[4] = system: Rp. palustris; test: Growth of wild-type Rp. palustris in the presence of gentamycin; format: cell-based, Rhodopseudomonas palustris; settings: gentamycin 50 μg·ml^−1
[5] = system: Rp. palustris ΔpRpa1; format: cell-based, Rhodopseudomonas palustris

In the case of `[C-]#[O+]` [CO, carbon monoxide], the “effect of CO on TBP degradation yield” value ([1]; 2 mM TBP) is reported as “does not significantly modify”, the “effect of CO on growth” value ([1]; 2 mM TBP present) is reported as “nor does it affect the growth” and the “effect of CO on growth” value ([1]; TBP absent) is reported as “does not affect the growth”. The “effect of CO on growth” value ([2]; 2 mM TBP present) was “greatly reduced”, the “effect of CO on growth” value ([2]; TBP absent) was “does not affect the growth” and the “effect of CO on TBP degradation” value ([2]; residual TBP after 21 days of culture, 2 mM TBP) was “considerable decrease in TBP degradation”.
With `Cc1cc2c(cc1C)N(C[C@H](O)[C@H](O)[C@H](O)COP(=O)(O)OP(=O)(O)OC[C@H]1O[C@@H](n3cnc4c(N)ncnc43)[C@H](O)[C@@H]1O)c1[nH]c(=O)[nH]c(=O)c1N2` [FADH2] the “effect of cofactor on TBP degradation” value [3] was “does not significantly enhance”.
With `NC(=O)C1=CN([C@@H]2O[C@H](COP(=O)(O)OP(=O)(O)OC[C@H]3O[C@@H](n4cnc5c(N)ncnc54)[C@H](O)[C@@H]3O)[C@@H](O)[C@H]2O)C=CC1` [NADH] the “effect of cofactor on TBP degradation” value [3] was “does not significantly enhance”.
In the case of gentamycin, the “resistance of the strain to the antibiotic” value [4] is reported as “naturally resistant” and the “growth in the presence of the antibiotic” value [5] is reported as “grows in the presence of this antibiotic”.
